Experimental data taken from paper PMC9045377, “CpxA Phosphatase Inhibitor Activates CpxRA and Is a Potential Treatment for Uropathogenic Escherichia coli in a Murine Model of Infection” (Microbiology Spectrum, 2022).
Values joined by “and” are separate entries in the source; they are usually repeats but may differ in a detail not shown here. Identical values can stand only once.

How the values were obtained:
[1] = Toxicity / clinical signs in mice; type: in vivo, female CBA/J mice
Experimental: We tested our initial hit, compound 1 ([31]) (Fig. 1), for toxicity in a murine model using criteria described in Materials and Methods. […] To test compound 1 for efficacy, female CBA/J mice were transurethrally inoculated with ∼1 × 10^8 CFU of UPEC strain CFT073; 12 h later, mice were treated with 100 mg/kg compound 1 (n = 10) or the vehicle control (n = 5) s.c. twice a day for 3 days and then sacrificed 4 h after the last dose. No effect was seen on the recovery of E. coli CFT073 in the urine, bladder, or kidneys (see Fig. S1 in the supplemental material). As compound 1 lacked efficacy, we aimed to improve the scaffold to enhance potency and eliminate the nitro group liability ([32]).
We developed a high-performance liquid chromatography-tandem mass spectrometry (HPLC-MS/MS) assay to measure compound 6 with a lower limit of quantification of 1 ng/mL. Single-dose PK parameters of compound 6 were determined in female CBA/J mice (n = 15) given 100 mg/kg s.c. dissolved in the vehicle. Blood was obtained from groups of 3 mice 1, 2, 4, 8, and 24 h postinjection.
Animal experiments were conducted according to the guidelines of the Indiana University School of Medicine Institutional Animal Care and Use Committee by the IU Simon Comprehensive Cancer Center In Vivo Therapeutics Core, a component of the Indiana Clinical Translational Science Institute. For the pilot toxicity study with compound 1, 4- to 6-week-old CBA/J female mice were obtained from Jackson Laboratory (Bar Harbor, ME) and were treated with compound 1 or the vehicle control twice a day for 3 days as described in the results. […] Toxicity was determined by the following criteria: deteriorating health-hunched posture, lack of grooming, failure to thrive, failure to eat and drink for >48 h, rapid loss of 15 to 20% body weight, inactivity with hunched posture, loss of righting reflex and inability to maintain upright posture, loss of general body condition with spine becoming visible, and dehiscence of wounds and/or evidence of infection at injection sites not responsive to veterinary treatment.

[2] = system: CpxRA; parameters: method as in PMID 31104993; settings: β-galactosidase reporter assay in E. coli; read-out: mean 50% effective concentration (EC50), CpxRA activation; cited from earlier work
[3] = system: CpxRA; assay: E. coli CpxR β-galactosidase reporter assay for CpxRA activation (reporter strain PAD282); type: cell-based, Escherichia coli
Experimental: E. coli strain CFT073 and its derivative CFT073ΔcpxA::cat were described previously and maintained on Luria broth (LB) plates at 37°C ([30]). The E. coli PcpxP′-lacZ reporter strain, PAD282, was the gift of Thomas Silhavy (Princeton University, Princeton, NJ, USA) and was maintained on TB plates at 37°C ([31]). HepG2 hepatocellular carcinoma cells were the gift of Andy Yu (Indiana University, Indianapolis, IN) and were grown in RPMI […] medium (Gibco) containing 10% fetal calf serum (HyClone) and 1 mM sodium pyruvate (Sigma) at 37°C with 5% CO2 as described ([31]).
Compounds 1 and 6 were purchased from ChemDiv and Aurum Pharmatech, respectively ([31], [32]). Compound 26 was synthesized and purified by the Duerfeldt laboratory as described ([32]). All compounds were dissolved in DMSO prior to use in this assay. The EC50 values for each compound were determined by measuring the β-galactosidase activity of the reporter strain PAD282 as previously reported ([31]). Briefly, PAD282 was cultured overnight in TB medium with 0.4% glucose and diluted into a 384-well plate, which contained the compounds in concentrations ranging from 0 to 160 μM, and incubated for 5 h at 37°C with no shaking. The All-in-One β-galactosidase reagent (Pierce) was added and the OD420, OD550, and OD600 of the wells were measured by a SpectraMax 384 plate reader. EC50 values were determined from 3 separate experiments done in triplicate using GraphPad Prism software using a nonlinear fit model. In some experiments, EC50 values were determined in the presence and absence of 10% human AB serum (Sigma).

[4] = system: UPEC strain CFT073; type: in vivo, Escherichia coli (in female CBA/J mice); settings: compound 6 trial
Experimental: Four groups of eight female CBA/J mice were transurethrally inoculated with a target dose of ∼10^8 CFU of either CFT073 or CFT073ΔcpxA::cat. One group was treated with ciprofloxacin (2.5 mg/kg/dose dissolved in sterile distilled water) s.c. 12, 24, 36, 48, and 60 h after inoculation with CFT073 as described ([31]). The untreated CFT073 and CFT073ΔcpxA::cat inoculated groups were given the vehicle control s.c. at 12, 24, 36, 48, and 60 h after inoculation. The compound 6 treated group were given the drug (100 mg/kg) s.c. at 12, 36, and 60 h after inoculation with CFT073 and received the vehicle control s.c. at 24 and 48 h. The animals were sacrificed 4 h after the last treatment (64 h postinoculation) and CFU per milliliter or CFU per gram of tissue was determined in the urine, bladder, and kidneys.
Animal experiments were conducted according to the guidelines of the University of Michigan Institutional Animal Care and Use Committee. For the animal infection experiments, bacterial strains were cultured at 37°C in LB medium overnight with shaking ([30]). Female CBA/J mice (Jackson Laboratories, Bar Harbor, ME) were inoculated transurethrally with a target dose of ∼10^8 CFU of CFT073 or CFT073ΔcpxA::cat. Mice were subsequently treated 12 h later either with the vehicle, ciprofloxacin hydrochloride (PanReac AppliChem ITW Reagents; Jade Scientific), compound 1, compound 6, or compound 26 as described in Results and euthanized 4 h after the last treatment. Bacterial loads of each strain were calculated from the urine, bladder, and kidneys of mice as previously described; the limits of detection for these assays were 100 CFU/mL or 100 CFU/g of urine and tissue, respectively ([33]). Values of 50 CFU/mL or 50 CFU/g were assigned to specimens whose yields were below the limit of detection.
Due to the extreme skewness of the data, natural log transformation was used before the data were analyzed statistically. Descriptive statistics were calculated for all of the log-transformed variables. Statistical comparisons were done using analysis of variance (ANOVA) with follow-up pairwise tests adjusted for multiple comparisons using the Tukey procedure.

[5] = system: UPEC strain CFT073; type: in vivo, Escherichia coli (in female CBA/J mice); settings: compound 26 trial
[6] = infected mice, 100 mg/kg s.c. at 12, 36, 60 h

NC1CCCc2c1[nH]c1ccc(F)cc21 (stereo not drawn) [compound 6]
clinical signs during efficacy trial [1, 6]: None of the compound 6-treated animals exhibited decreased activity, tremors, or squinting | clinical signs of toxicity at 24 h ([1]; single dose 100 mg/kg s.c.): No mice showed clinical signs of toxicity | tremors ([1]; single dose 100 mg/kg s.c., n = 15, one mouse from 30 min (severe at 2 h), six mice after 1 h): slight tremors | clinical signs, all treated mice ([1]; single dose 100 mg/kg s.c., from 10 min after injection to the 8-h time point): slightly decreased activity and squinting | EC50 [2]: 7.7 µM | effect of 10% human AB serum on activity in the reporter assay ([3]; 10% human AB serum present vs absent): not affected | fold lower EC50 (more potent) than compound 1 ([3]; reporter assay): 3.2 fold and 3 fold | concentration for peak activation of CpxR ([3]; reporter assay, Fig. S2): 10 µM | CFU of CFT073 recovered in urine vs CFT073-inoculated vehicle control ([4]; 8 mice/group, compound 6 100 mg/kg s.c. at 12, 36, 60 h, ciprofloxacin 2.5 mg/kg/dose s.c. at 12, 24, 36, 48, 60 h, sacrifice 64 h): no effect | CFU of CFT073 recovered in bladder vs CFT073-inoculated vehicle control ([4]; same regimens): no effect | CFU of CFT073 recovered in kidneys vs CFT073-inoculated vehicle control ([4]; same regimens): no effect

N[C@@H]1CCCc2c1[nH]c1cc(F)c(F)cc21 [compound 26]
recoverable CFU in bladder vs vehicle-treated mice inoculated with CFT073ΔcpxA::cat [5]: significantly lower | recoverable CFU in kidneys vs vehicle-treated mice inoculated with CFT073ΔcpxA::cat [5]: significantly lower | recoverable CFU in urine vs vehicle-treated mice inoculated with CFT073ΔcpxA::cat [5]: trended toward having a lower CFU | recoverable CFU in urine vs CFT073-inoculated vehicle-treated controls ([5]; 8 mice/group, compound 26 100 mg/kg s.c. at 12, 36, 60 h, ciprofloxacin 2.5 mg/kg/dose s.c. at 12, 24, 36, 48, 60 h, sacrifice 64 h): significantly lowered | recoverable CFU in bladder vs CFT073-inoculated vehicle-treated controls ([5]; same regimens): trended toward lowering | recoverable CFU in kidneys vs CFT073-inoculated vehicle-treated controls ([5]; same regimens): trended toward lowering | recoverable CFU in urine, bladder and kidneys vs ciprofloxacin-treated group ([5]; all P > 0.9): no significant differences | signs of toxicity during efficacy trial [1, 6]: None of the compound 26-treated animals exhibited signs of toxicity | EC50 [2]: 1.1 µM | fold lower EC50 (more potent) than compound 6 ([3]; reporter assay): ~7 fold
